Format in all cases: in vivo
In assay [1] the test system is Alopecurus myosuroides (ALOMY). The assay can be described thus: Pre-emergence biological efficacy, glasshouse pot test. The conditions noted are these: 312 h, pre-emergence, 1,000 g/ha, evaluated after 13 days (100=total damage; 0=no damage), read-out: Percentage damage ALOMY. In a few lines:
(§1)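 Damage rated 0–100 (100 = total kill) 13 days post-spray. Pots of standard soil were sown and sprayed after one day with test compound at 1000 or 250 g/ha in acetone/water (50:50) plus 0.5% Tween 20.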

The subject of assay [2] is Amaranthus retoflexus (AMARE). The description is as above. The conditions noted are these: Amaranthus retroflexus, 312 h; pre-emergence, 1,000 g/ha, evaluated after 13 days (100=total damage; 0=no damage); read-out: Percentage damage AMARE. The method in brief: as §1
Assay [3] relates to Echinochloa crus-galli (ECHCG). Described as above. The conditions noted are these: 312 h, pre-emergence, 1,000 g/ha, evaluated after 13 days (100=total damage; 0=no damage), read-out: Percentage damage ECHCG. The method in brief: as §1
Assay [4] relates to Ipomea hederaceae (IPOHE). The assay is described as above. The conditions noted are these: Ipomoea hederacea, 312 h; pre-emergence, 1,000 g/ha, evaluated after 13 days (100=total damage; 0=no damage); read-out: Percentage damage IPOHE. The method in brief:
as §1

Assay [5] relates to Setaria faberi (SETFA). The description is as above. The conditions noted are these: 312 h, pre-emergence, 1,000 g/ha, evaluated after 13 days (100=total damage; 0=no damage), read-out: Percentage damage SETFA. The method in brief:
as §1

Assay [6] concerns Solanum nigrum (SOLNI). The description is as above. The conditions noted are these: 312 h, pre-emergence, 1,000 g/ha, evaluated after 13 days (100=total damage; 0=no damage), read-out: Percentage damage SOLNI. In a few lines:
as §1

Assay [7] concerns Alopecurus myosuroides (ALOMY). The assay can be described thus: Post-emergence biological efficacy, glasshouse pot test. The conditions noted are these: 312 h, post-emergence, 1,000 g/ha, evaluated after 13 days (100=total damage; 0=no damage), read-out: Percentage damage caused to weed species, ALOMY. The method in brief:
(§2)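 Pot-grown weeds were sprayed 8 days after sowing with test compound in acetone/water (50:50) with 0.5% Tween 20 at 1000 or 250 g/ha. Glasshouse at 24/16° C day/night, 14 h light, 65% humidity. Damage scored 0-100 (100 = total damage) after 13 days.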

For assay [8], the system named is Amaranthus retoflexus (AMARE). Described as above. The conditions noted are these: Amaranthus retroflexus, 312 h; post-emergence, 1,000 g/ha, evaluated after 13 days (100=total damage; 0=no damage); read-out: Percentage damage caused to weed species, AMARE. In a few lines: as §2
Assay [9] has as its system Echinochloa crus-galli (ECHCG). The description is as above. The conditions noted are these: 312 h, post-emergence, 1,000 g/ha, evaluated after 13 days (100=total damage; 0=no damage), read-out: Percentage damage caused to weed species, ECHCG. The method in brief:
as §2

In assay [10] the test system is Ipomea hederaceae (IPOHE). The assay is described as above. The conditions noted are these: Ipomoea hederacea, 312 h; post-emergence, 1,000 g/ha, evaluated after 13 days (100=total damage; 0=no damage); read-out: Percentage damage caused to weed species, IPOHE. In a few lines: as §2
The subject of assay [11] is Setaria faberi (SETFA). The description is as above. The conditions noted are these: 312 h, post-emergence, 1,000 g/ha, evaluated after 13 days (100=total damage; 0=no damage), read-out: Percentage damage caused to weed species, SETFA. The method in brief:
as §2

The test system of assay [12] is Solanum nigrum (SOLNI). The assay is described as above. The conditions noted are these: 312 h, post-emergence, 1,000 g/ha, evaluated after 13 days (100=total damage; 0=no damage), read-out: Percentage damage caused to weed species, SOLNI. In a few lines:
as §2

On to `COC(=O)c1nc(C2CC2)nc(NCc2ccncc2)c1Cl` [Compound 4-160, 5-Chloro-2-cyclopropyl-6-methoxycarbonyl-4-(pyrid-4-yl-methyl-amino)pyrimidine], for which the pest or weed control at 1000 g/ha in assay [1] is 20%; in assay [2] it was 70%; in assay [3], 60%; in assay [4] it was 100%; with Setaria faberi (SETFA) [5], 50%; in the assay on Solanum nigrum (SOLNI) [6] it was 90%. The pest or weed control at 1000 g/ha amounted to 40% in [7]; 100% in assay [8]; 70% in assay [9]; 90% in assay [10]; 80% in the assay on Setaria faberi (SETFA) [11]; 80% with Solanum nigrum (SOLNI) [12].

Turning to `COC(=O)c1nc(C2CC2)nc(NCc2cc3cc(Br)ccc3o2)c1Cl` [Compound 4-164, 4-(5-Bromo-benzofuran-2-yl)methylamino-5-chloro-2-cyclopropyl-6-methoxycarbonyl-pyrimidine], the pest or weed control at 1000 g/ha in assay [1] is 30%; in assay [2] it was 50%; in [3] it was 30%; in [4] it was 100%; with Setaria faberi (SETFA) [5], 30%; with Solanum nigrum (SOLNI) [6] it was 50%. The pest or weed control at 1000 g/ha was 30% in assay [7]; 100% in [8]; 60% in assay [9]; 80% in assay [10]; 70% in the assay on Setaria faberi (SETFA) [11]; 100% in the assay on Solanum nigrum (SOLNI) [12].

On to `COC(=O)c1nc(C2CC2)nc(NCc2nc3ccccc3s2)c1Cl` [Compound 4-168, 4-(Benzothiazol-2-ylmethylamino)-5-chloro-2-cyclopropyl-6-methoxycarbonyl-pyrimidine], for which the pest or weed control at 1000 g/ha in [1] was determined as 20%; in [2], 20%; in assay [3], 20%; in assay [4] it was 50%; in the assay on Setaria faberi (SETFA) [5] it was 0%; in the assay with Solanum nigrum (SOLNI) [6], 40%. Also, the pest or weed control at 1000 g/ha in [7] is 30%; in assay [8], 90%; in assay [9], 40%; in assay [10], 60%; in the assay with Setaria faberi (SETFA) [11], 60%; in the assay with Solanum nigrum (SOLNI) [12] it was 70%.

`COC(=O)c1nc(C2CC2)nc(NC(C)C2CC2)c1Cl` (stereo not drawn) [Compound 4-171, 5-Chloro-2-cyclopropyl-4-(1-cyclopropylethyl-amino)-6-methoxy-carbonylpyrimidine]: the pest or weed control at 1000 g/ha came out at 30% in [1]; 90% in assay [2]; 70% in [3]; 100% in [4]; 40% in the assay on Setaria faberi (SETFA) [5]; 40% in the assay with Solanum nigrum (SOLNI) [6]. The pest or weed control at 1000 g/ha in assay [7] was 40%; in assay [8], 100%; in assay [9] it was 60%; in assay [10], 90%; with Setaria faberi (SETFA) [11] it was 90%; in the assay on Solanum nigrum (SOLNI) [12] it was 90%.

For the compound `COC(=O)c1nc(C2CC2)nc(NC(C)c2ccccc2)c1Cl` (stereo not drawn) [Compound 4-174, 5-Chloro-2-cyclopropyl-6-methoxycarbonyl-4-(1-phenylethyl-amino)pyrimidine], the pest or weed control at 1000 g/ha in [1] was found to be 20%; in assay [2], 80%; in assay [3], 30%; in assay [4] it was 50%; in the assay with Setaria faberi (SETFA) [5], 20%; with Solanum nigrum (SOLNI) [6], 70%. Besides, the pest or weed control at 1000 g/ha in [7] worked out at 30%; in [8] it was 100%; in assay [9], 90%; in assay [10] it was 100%; in the assay with Setaria faberi (SETFA) [11], 90%; in the assay on Solanum nigrum (SOLNI) [12], 90%.

`COC(=O)c1nc(C2CC2)nc(NC(C)c2ccc(F)cc2)c1Cl` (stereo not drawn) [Compound 4-175, 5-Chloro-2-cyclopropyl-4-[1-(4-fluorophenyl)ethyl-amino]-6-methoxy-carbonylpyrimidine]: the pest or weed control at 1000 g/ha is 10% in [1]; 50% in assay [2]; 10% in [3]; 70% in assay [4]; 0% in the assay with Setaria faberi (SETFA) [5]; 10% with Solanum nigrum (SOLNI) [6]. Moreover, the pest or weed control at 1000 g/ha is 20% in [7]; 100% in assay [8]; 60% in assay [9]; 100% in [10]; 90% with Setaria faberi (SETFA) [11]; 100% with Solanum nigrum (SOLNI) [12].

Turning to `COC(=O)c1nc(C2CC2)nc(NC(C)c2ccc(Cl)cc2)c1Cl` (stereo not drawn) [Compound 4-176, 5-Chloro-4-[1-(4-chlorophenyl)ethyl-amino]-2-cyclo-propyl-6-methoxy-carbonylpyrimidine], the pest or weed control at 1000 g/ha came out at 0% in assay [1]; 50% in assay [2]; 20% in assay [3]; 60% in [4]; 0% in the assay on Setaria faberi (SETFA) [5]; 0% in the assay on Solanum nigrum (SOLNI) [6]. Also, the pest or weed control at 1000 g/ha amounted to 20% in assay [7]; 100% in assay [8]; 50% in assay [9]; 100% in [10]; 70% in the assay on Setaria faberi (SETFA) [11]; 100% in the assay on Solanum nigrum (SOLNI) [12].

Take `COC(=O)c1nc(C2CC2)nc(NC(C)c2ccc(Br)cc2)c1Cl` (stereo not drawn) [Compound 4-177, 4-[1-(4-Bromophenyl)ethyl-amino]-5-chloro-2-cyclopropyl-6-methoxycarbonyl-pyrimidine]: the pest or weed control at 1000 g/ha was 0% in assay [1]; 20% in [2]; 0% in [3]; 20% in assay [4]; 0% in the assay with Setaria faberi (SETFA) [5]; 0% with Solanum nigrum (SOLNI) [6]. Moreover, the pest or weed control at 1000 g/ha amounted to 20% in assay [7]; 90% in assay [8]; 50% in assay [9]; 100% in [10]; 40% with Setaria faberi (SETFA) [11]; 90% with Solanum nigrum (SOLNI) [12].

On to `CCCCCc1ccc(C(C)Nc2nc(C3CC3)nc(C(=O)OC)c2Cl)cc1` (stereo not drawn) [Compound 4-178, 5-Chloro-2-cyclopropyl-6-methoxycarbonyl-4-[1-(4-n-pentyl-phenyl)ethylamino]-pyrimidine], for which the pest or weed control at 1000 g/ha in assay [1] was determined as 10%; in assay [2] it was 60%; in assay [3], 10%; in assay [4] it was 40%; in the assay with Setaria faberi (SETFA) [5], 10%; with Solanum nigrum (SOLNI) [6], 30%. Further, the pest or weed control at 1000 g/ha in [7] came to 20%; in [8] it was 70%; in assay [9], 20%; in [10], 70%; in the assay with Setaria faberi (SETFA) [11], 30%; in the assay with Solanum nigrum (SOLNI) [12], 80%.

The values above are taken from patent US20110086759A1, “CHEMICAL COMPOUNDS” (SYNGENTA CROP PROTECTION, INC., priority 2007, published 2011).
